Experiment [1] concerns the target T1, human phosphodiesterase 5 (PDE 5) (Homo sapiens, UniProt O76074).
T1 construct: PDE 5 preparations are obtained from human platelets by disruption; from tissue; host or cells: human platelets
Put plainly: Inhibition of human phosphodiesterase 5 (PDE 5). In kind it is biochemical. As to conditions: PDE 5 preparation from human platelets; in some cases means of individual determinations. On the procedure:
B-3. Inhibition of Human Phosphodiesterase 5 (PDE 5)
PDE 5 preparations are obtained from human platelets by disruption (Microfluidizer®, 800 bar, 3 passes), followed by centrifugation (75 000 g, 60 min, 4° C.) and ion exchange chromatography of the supernatant on a Mono Q 10/10 column (linear sodium chloride gradient, elution with a 0.2-0.3M solution of sodium chloride in buffer (20 mM Hepes pH 7.2, 2 mM magnesium chloride). Fractions having PDE 5 activity are combined (PDE 5 preparation) and stored at −80° C.
To determine their in vitro action on human PDE 5, the test substances are dissolved in 100% DMSO and serially diluted. Typically, dilution series (1:3) from 200 μM to 0.091 μM are prepared (resulting final concentrations in the test: 4 μM to 0.0018 μM). In each case 2 μl of the diluted substance solutions are placed into the wells of microtitre plates (Isoplate-96/200W; Perkin Elmer). Subsequently, 50 μl of a dilution of the above-described PDE 5 preparation are added. The dilution of the PDE 5 preparation is chosen such that during the later incubation less than 70% of the substrate are converted (typical dilution: 1:100; dilution buffer: 50 mM tris/hydrochloric acid pH 7.5, 8.3 mM magnesium chloride, 1.7 mM EDTA, 0.2% BSA). The substrate, [8-^3H] cyclic guanosine-3′,5′-monophosphate (1 μCi/μl; Perkin Elmer), is diluted 1:2000 with assay buffer (50 mM tris/hydrochloric acid pH 7.5, 8.3 mM magnesium chloride, 1.7 mM EDTA) to a concentration of 0.0005 μCi/μl. By addition of 50 μl (0.025 μCi) of the diluted substrate, the enzyme reaction is finally started. The test mixtures are incubated at room temperature for 60 min and the reaction is stopped by adding 25 μl of a suspension of 18 mg/ml yttrium scintillation proximity beads in water (phosphodiesterase beads for SPA assays, RPNQ 0150, Perkin Elmer). The microtitre plates are sealed with a film and left to stand at room temperature for 60 min. Subsequently, the plates are analysed for 30 s per well in a Microbeta scintillation counter (Perkin Elmer). IC50 values are determined using the graphic plot of the substance concentration against percentage PDE 5 inhibition.

The target of experiment [2] is T2, recombinant guanylate cyclase reporter cell line (Rattus norvegicus, UniProt P19686+P20595).
T2 construct: expressed in transfected cells
T2 sequence (P19686 1-690): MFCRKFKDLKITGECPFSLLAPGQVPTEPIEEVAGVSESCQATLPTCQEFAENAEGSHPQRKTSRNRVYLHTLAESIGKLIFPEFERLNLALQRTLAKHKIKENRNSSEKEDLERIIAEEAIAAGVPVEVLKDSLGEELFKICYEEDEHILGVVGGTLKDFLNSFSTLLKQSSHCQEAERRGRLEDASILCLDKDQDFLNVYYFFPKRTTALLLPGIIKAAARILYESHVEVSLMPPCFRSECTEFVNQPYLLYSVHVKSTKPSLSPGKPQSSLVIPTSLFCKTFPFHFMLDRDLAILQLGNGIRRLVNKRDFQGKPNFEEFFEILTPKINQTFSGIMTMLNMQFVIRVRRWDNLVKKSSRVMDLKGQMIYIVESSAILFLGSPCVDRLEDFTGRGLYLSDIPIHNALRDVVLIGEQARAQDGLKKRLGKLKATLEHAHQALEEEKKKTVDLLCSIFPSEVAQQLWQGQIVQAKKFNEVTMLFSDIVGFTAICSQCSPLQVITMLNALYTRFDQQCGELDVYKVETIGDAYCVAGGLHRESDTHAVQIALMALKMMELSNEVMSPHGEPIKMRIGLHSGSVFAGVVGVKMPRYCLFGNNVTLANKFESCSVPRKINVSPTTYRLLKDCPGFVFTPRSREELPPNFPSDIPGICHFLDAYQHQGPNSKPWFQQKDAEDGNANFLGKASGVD
T2 sequence (P20595 1-619): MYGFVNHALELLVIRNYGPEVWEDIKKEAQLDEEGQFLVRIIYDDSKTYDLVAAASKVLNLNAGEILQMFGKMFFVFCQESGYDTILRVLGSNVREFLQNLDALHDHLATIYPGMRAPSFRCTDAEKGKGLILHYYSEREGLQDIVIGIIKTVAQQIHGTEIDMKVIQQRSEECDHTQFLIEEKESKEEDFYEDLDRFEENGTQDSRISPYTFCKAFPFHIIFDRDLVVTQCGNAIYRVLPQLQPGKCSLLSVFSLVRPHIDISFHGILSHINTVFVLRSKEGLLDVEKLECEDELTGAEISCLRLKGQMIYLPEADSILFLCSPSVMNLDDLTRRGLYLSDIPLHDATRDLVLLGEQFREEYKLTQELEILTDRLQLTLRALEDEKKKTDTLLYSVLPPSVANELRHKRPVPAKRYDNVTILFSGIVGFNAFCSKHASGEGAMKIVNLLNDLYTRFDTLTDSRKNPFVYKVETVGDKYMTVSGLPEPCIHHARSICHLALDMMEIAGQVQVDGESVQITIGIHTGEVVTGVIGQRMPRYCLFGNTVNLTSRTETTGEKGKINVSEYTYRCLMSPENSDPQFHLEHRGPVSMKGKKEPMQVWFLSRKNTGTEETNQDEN
Nature of the experiment: Effect on a recombinant guanylate cyclase reporter cell line. As to conditions: MEC = minimum effective concentration; in some cases means of individual determinations. In kind it is cell-based. On the procedure:
B-2. Effect on a Recombinant Guanylate Cyclase Reporter Cell Line
The cellular activity of the compounds of the invention is determined using a recombinant guanylate cyclase reporter cell line, as described in F. Wunder et al., Anal. Biochem. 2005, 339, 104-112. Representative values (MEC=minimum effective concentration) for the compounds of the invention are shown in the table below (Table 1B; in some cases as means of individual determinations): […]

pIC50: −log10 of the molar value.

Here are results for nine molecules from patent US20170233413A1, “SUBSTITUTED ANNULATED PYRIMIDINES AND USE THEREOF” (Bayer Pharma Aktiengesellschaft, priority 2014, published 2017).

Turning to `CC1(C)C(=O)Nc2nc(-c3nn(Cc4ccccc4F)c4ncccc34)nc(C(=O)NC3CCOC3)c21` (racemic) [Example 65, rac-2-[1-(2-fluorobenzyl)-1H-pyrazolo[3,4-b]pyridin-3-yl]-5,5-dimethyl-6-oxo-N-(tetrahydrofuran-3-yl)-6,7-dihydro-5H-pyrrolo[2,3-d]pyrimidine-4-carboxamide], the pIC50 (usually the IC50 on a negative log10 scale, so that one unit is a factor of ten) in experiment [1] is 8.17. The MEC in experiment [2] stood at 1 µM.

With `CCC(=O)C(C)NC(=O)c1nc(-c2nn(Cc3ccccc3F)c3ncccc23)nc2c1C(C)(C)C(=O)N2` (racemic) [Example 66, rac-2-[1-(2-fluorobenzyl)-1H-pyrazolo[3,4-b]pyridin-3-yl]-5,5-dimethyl-6-oxo-N-(3-oxopentan-2-yl)-6,7-dihydro-5H-pyrrolo[2,3-d]pyrimidine-4-carboxamide], the pIC50 in experiment [1] is 7.06. Besides, the MEC in experiment [2] amounted to 0.3 µM.

In experiment [1], `CC(CC1CC1)NC(=O)c1nc(-c2nn(Cc3ccccc3F)c3ncccc23)nc2c1C(C)(C)C(=O)N2` (racemic) [Example 68, rac-N-(1-cyclopropylpropan-2-yl)-2-[1-(2-fluorobenzyl)-1H-pyrazolo[3,4-b]pyridin-3-yl]-5,5-dimethyl-6-oxo-6,7-dihydro-5H-pyrrolo[2,3-d]pyrimidine-4-carboxamide] gave a pIC50 of 7.89. Besides, the MEC in experiment [2] was found to be 0.1 µM.

In turn, `CC1(C)C(=O)Nc2nc(-c3nn(Cc4ccccc4F)c4ncccc34)nc(C(=O)NC3CCOC3=O)c21` (racemic) [Example 78, rac-2-[1-(2-fluorobenzyl)-1H-pyrazolo[3,4-b]pyridin-3-yl]-5,5-dimethyl-6-oxo-N-(2-oxotetrahydrofuran-3-yl)-6,7-dihydro-5H-pyrrolo[2,3-d]pyrimidine-4-carboxamide] showed a pIC50 in experiment [1] of 8.03. Further, the MEC in experiment [2] was 0.3 µM.

For `CC1(C)C(=O)Nc2nc(-c3nn(Cc4ccccc4F)c4ncccc34)nc(C(=O)NCC3CCOC3)c21` (racemic) [Example 99, rac-2-[1-(2-fluorobenzyl)-1H-pyrazolo[3,4-b]pyridin-3-yl]-5,5-dimethyl-6-oxo-N-(tetrahydrofuran-3-ylmethyl)-6,7-dihydro-5H-pyrrolo[2,3-d]pyrimidine-4-carboxamide], the pIC50 in experiment [1] is 7.51. Moreover, in experiment [2], the MEC is 0.3 µM.

In experiment [1], `CC(NC(=O)c1nc(-c2nn(Cc3ccccc3F)c3ncccc23)nc2c1C(C)(C)C(=O)N2)C1CC1` (racemic) [Example 104, rac-N-(1-cyclopropylethyl)-2-[1-(2-fluorobenzyl)-1H-pyrazolo[3,4-b]pyridin-3-yl]-5,5-dimethyl-6-oxo-6,7-dihydro-5H-pyrrolo[2,3-d]pyrimidine-4-carboxamide] had a negative-log IC50 (pIC50) of 7.96. For the same molecule, the MEC in experiment [2] was determined as 0.1 µM.

Consider `CC(CNC(=O)c1nc(-c2nn(Cc3ccccc3F)c3ncccc23)nc2c1C(C)(C)C(=O)N2)N(C)C` (racemic) [Example 105, rac-N-[2-(dimethylamino)propyl]-2-[1-(2-fluorobenzyl)-1H-pyrazolo[3,4-b]pyridin-3-yl]-5,5-dimethyl-6-oxo-6,7-dihydro-5H-pyrrolo[2,3-d]pyrimidine-4-carboxamide], for which the pIC50 in experiment [1] is 6.21. Moreover, the MEC in experiment [2] was 1 µM.

In experiment [1], `CCC(C)CNC(=O)c1nc(-c2nn(Cc3ccccc3F)c3ncccc23)nc2c1C(C)(C)C(=O)N2` (racemic) [Example 125, rac-2-[1-(2-fluorobenzyl)-1H-pyrazolo[3,4-b]pyridin-3-yl]-5,5-dimethyl-N-(2-methylbutyl)-6-oxo-6,7-dihydro-5H-pyrrolo[2,3-d]pyrimidine-4-carboxamide] had a negative logarithm of the IC50 (pIC50) of 7.52. In experiment [2], the MEC is 0.3 µM.

Consider `CC1(C)C(=O)Nc2nc(-c3nn(Cc4ccccc4F)c4ncccc34)nc(C(=O)NCC3CCCO3)c21` (racemic) [Example 130, rac-2-[1-(2-fluorobenzyl)-1H-pyrazolo[3,4-b]pyridin-3-yl]-5,5-dimethyl-6-oxo-N-(tetrahydrofuran-2-ylmethyl)-6,7-dihydro-5H-pyrrolo[2,3-d]pyrimidine-4-carboxamide], for which the pIC50 in experiment [1] is 7.55. Moreover, the MEC in experiment [2] is 0.3 µM.
